# Results: PMC9403987 (Frontiers in Oncology, 2022)
# Assays:
# MCF-7 tumor cells = assay: Orthotopic MCF-7 breast cancer xenograft; format: in vivo, NOD/SCID mice; conditions: 25 mg/kg daily oral
# Method: (§1) The efficacy of GLR2007 was evaluated in human GBM and breast cancer orthotopic cell-line-derived xenografts in NOD/SCID mice (Shanghai Lingchang Biotechnology Co. Ltd, Shanghai, China) and BALB/c nude mice (Shanghai Sino-British SIPPR/BK Laboratory Animal Co. Ltd, Shanghai, China), and human lung, colorectal, and liver cancer subcutaneous cell-line-derived xenografts in BALB/c nude mice (Nanjing University National Resource Center, Nanjing, China, or Beijing Anikeeper Biotech Co., Beijing, China). Mice were maintained in humidity- and temperature-controlled conditions with food and water available ad libitum.
# In two breast cancer orthotopic xenograft models, female NOD/SCID mice were subcutaneously implanted with an estrogen pellet (17β-estradiol; Innovative Research of America, Sarasota, FL, USA) one day before tumor inoculation. Mice were inoculated at 6–7 weeks old with 2×10^7 MCF-7 tumor cells plus Matrigel in a 1:1 ratio in PBS at a mammary fat pad or in the right flank. Randomization was performed when the mean tumor volume reached 135–138 mm^3.
# LI1088 = assay: Subcutaneous LI1088 liver cancer xenograft; format: in vivo, BALB/c nude mice; conditions: 25 mg/kg daily oral, 28 days, measured day 25
# Method: as §1, with “libitum. For subcutaneous models, female BALB/c nude mice were inoculated at 4–8 weeks old with 3×10^6–1×10^7 tumor cells (see Table 1 for xenograft model cell types) in the right flank for tumor development. Randomization was performed when the mean tumor volume reached 118–171 mm^3.” for “libitum.”
# NCI-H1975 = assay: Subcutaneous NCI-H1975 non-small cell lung cancer xenograft; format: in vivo, BALB/c nude mice; conditions: 25 mg/kg daily oral, 22 days, measured day 16
# Method: as §1, with “libitum. For subcutaneous models, female BALB/c nude mice were inoculated at 4–8 weeks old with 3×10^6–1×10^7 tumor cells (see Table 1 for xenograft model cell types) in the right flank for tumor development. Randomization was performed when the mean tumor volume reached 118–171 mm^3.” for “libitum.”
# COLO 205 = assay: Subcutaneous COLO 205 colorectal cancer xenograft; format: in vivo, BALB/c nude mice; conditions: 25 mg/kg daily oral, 26 days, measured day 25
# Method: as §1, with “libitum. For subcutaneous models, female BALB/c nude mice were inoculated at 4–8 weeks old with 3×10^6–1×10^7 tumor cells (see Table 1 for xenograft model cell types) in the right flank for tumor development. Randomization was performed when the mean tumor volume reached 118–171 mm^3.” for “libitum.”
# [1] = design: method as in PMID 26149830, PMID 20354191; conditions: within 5 minutes after intravenous administration of 1 mg/kg; cited from earlier work
# BN2289 = assay: Subcutaneous BN2289 glioblastoma xenograft; format: in vivo, BALB/c nude mice; conditions: 25 mg/kg daily oral, 28 days, measured day 21
# Method: as §1, with “libitum. For subcutaneous models, female BALB/c nude mice were inoculated at 4–8 weeks old with 3×10^6–1×10^7 tumor cells (see Table 1 for xenograft model cell types) in the right flank for tumor development. Randomization was performed when the mean tumor volume reached 118–171 mm^3.” for “libitum.”
# [2] = mouse, in vivo, po, 100 mg/kg; cited from earlier work
SMILES,"TGI (%) (MCF-7 tumor cells; 21 days, measured day 21, 8 mice)","TGI (%) (MCF-7 tumor cells; 28 days, measured day 25, 10 mice)",TGI (%) (LI1088),TGI (%) (NCI-H1975),TGI (%) (COLO 205),"unbound brain-to-plasma partition coefficient (Kp,uu) [1]",TGI (%) (BN2289),"Kp,uu [2]"
"CC(=O)c1c(C)c2cnc(Nc3ccc(N4CCNCC4)cn3)nc2n(C2CCCC2)c1=O [Palbociclib, palbociclib, reference compound]",45.5%,77.7%,16.4%,33.6%,52.9%,0.01,34.0%,
CN(C)C(=O)c1cc2cnc(Nc3ccc(N4CCNCC4)cn3)nc2n1C1CCCC1 [ribociclib],,,,,,,,0.105
